# Results: the RepoRT retention time repository
# Experiment: HILIC, Merck SeQuant ZIC-HILIC, 25 °C, 0.25 mL/min; A: water + 16 mM ammonium formate; B: acetonitrile + 0.1% formic acid, pH 3; gradient (min/%B) 0/97 2/97 10/70 15/10 17/10 18/97 25/97
# Conditions: stereoisomer not certain
row,SMILES,LC retention time [min]
1,CCOC(=O)CCNC(N)=O [ETHYL 3-UREIDOPROPIONATE],2.14
2,O=C(O)C1OC(OP(=O)(O)OP(=O)(O)OCC2OC(n3ccc(=O)[nH]c3=O)C(O)C2O)C(O)C(O)C1O (configuration not stated) [URIDINE DIPHOSPHATE GLUCURONIC ACID],15.3
3,O=C(O)c1cc(O)ccc1O [2-5-DIHYDROXYBENZOATE],2.14
4,Nc1ccccc1C(=O)O [ANTHRANILATE],1.84
5,O=C(O)CNC(=O)c1ccccc1 [HIPPURATE],2.12
6,Cc1ncc(COP(=O)(O)O)c(C=O)c1O [PYRIDOXAL-PHOSPHATE],11.8
7,CN(CC(=O)O)C(=N)N [CREATINE],13.9
8,CC(=O)C1(O)CCC2C3CC=C4CC(O)CCC4(C)C3CCC21C (configuration not stated) [17a-Hydroxypregnenolone_H2],2.17
9,CC(=O)NC(CC(=O)O)C(=O)O (configuration not stated) [N-ACETYLASPARTATE],8.76
10,COc1cc(C=CC(=O)O)ccc1O [FERULATE],1.94
11,O=C(O)c1cc(=O)c2cccc(O)c2[nH]1 [XANTHURENATE],10.4
12,CC(CCC(=O)O)C1CCC2C3CCC4CC(O)CCC4(C)C3CC(O)C12C (configuration not stated) [deoxycholic acid],1.98
13,O=C(O)C(O)C(O)C(O)C(O)CO (configuration not stated) [GLUCONATE],13.6
14,CN=C(N)N [METHYLGUANIDINE],12
15,CC(=O)NC(CC(N)=O)C(=O)O (configuration not stated) [N-ACETYLASPARAGINE],9.75
16,Oc1ccc2[nH]ccc2c1 [5-Hydroxyindole],2
17,CC(=O)C1CCC2C3CCC4=CC(=O)CCC4(C)C3CCC12C (configuration not stated) [Progesterone],1.58
18,C[n+]1cccc(C(=O)[O-])c1 [TRIGONELLINE],13
19,NC(=O)C[C@H](N)C(=O)O [L-Asparagine],14.2
20,Nc1ccc(C(=O)O)cn1 [6-Aminopyridine-3-carboxylic acid],8.01
21,CC(C)CC(O)C(=O)O (configuration not stated) [2-Hydroxyisocaproic acid],1.91
22,CC(C)C(C(=O)O)C(O)C(=O)O (configuration not stated) [3-isopropylmalic acid],2.19
23,Cn1cc(C(N)=O)ccc1=O [N-methyl-2-pyridone-5-carboxamide],2.21
24,Nc1c(O)cccc1C(=O)CC(N)C(=O)O (configuration not stated) [HYDROXYKYNURENINE],12

row,SMILES,LC retention time [min]
1,CC(CN)C(=O)O (configuration not stated) [AMINOISOBUTANOATE],13.4
2,CC(=O)CC(=O)[O-] [ACETOACETATE],1.91
3,CC(C)=CC(=O)SCCNC(=O)CCNC(=O)C(O)C(C)(C)COP(=O)(O)OP(=O)(O)OCC1OC(n2cnc3c(N)ncnc32)C(O)C1OP(=O)(O)O (configuration not stated) [3-METHYLCROTONYL-COA],13.4
4,O=c1ccc2cc(O)ccc2[nH]1 [2-6-quinolinediol],2.16
5,Nc1ncnc2c1ncn2C1OC(COP(=O)(O)O)C(O)C1O (configuration not stated) [ADENOSINE-MONOPHOSPHATE],13.6
6,Cc1ncc(C[n+]2csc(CCOP(=O)(O)O)c2C)c(N)n1 [THIAMINE MONOPHOSPHATE],16.4
7,NC(=O)CCCCC1CCSS1 (configuration not stated) [LIPOAMIDE],1.79
8,CC(O)(CC(=O)O)CC(=O)O [3-HYDROXYMETHYLGLUTARATE],4.96
9,O=C(O)c1ccc2ccccc2c1[O-] [1-HYDROXY-2-NAPHTHOATE],1.77
10,O=C/C=C/c1ccccc1 [Trans-Cinnamaldehyde],1.57
11,NC(N)=NCC(=O)O [GUANIDINOACETATE],14
12,CC(C)(N)C(=O)O [2-AMINOISOBUTYRATE],13
13,OCCNCCO [DIETHANOLAMINE],13.1
14,CC(C)C(O)C(=O)O (configuration not stated),1.94
15,CC12CCC(=O)C=C1CCC1C2CCC2(C)C1CCC2(O)C(=O)CO (configuration not stated) [CORTEXOLONE],1.71
16,O=C(O)c1ccc2ccccc2n1 [2-QUINOLINECARBOXYLATE],2.13
17,C=C(OP(=O)(O)O)C(=O)[O-] [PHOSPHOENOLPYRUVATE],14.7
18,NC(CS(=O)O)C(=O)O (configuration not stated) [3-SULFINOALANINE],14.4
19,O=c1cc[nH]c(=O)[nH]1 [URACIL],2.24
20,CCCCCCCCCCCCCCCC(=O)OCC(COP(=O)(O)OCCN)OC(=O)CCCCCCCCCCCCCCC (configuration not stated) [DIPALMITOYL-PHOSPHOETHANOLAMINE],9.35
21,C[n+]1cccc(C(N)=O)c1 [1-METHYLNICOTINAMIDE],12.8
22,Nc1ccn(C2OC(CO)C3OP(=O)(O)OC32)c(=O)n1 (configuration not stated) [CYTIDINE 2'-3'-CYCLIC PHOSPHATE],13.6
23,CCCCCCCCCC(=O)OCC(COP(=O)([O-])OCC[N+](C)(C)C)OC(=O)CCCCCCCCC (configuration not stated) [DIDECANOYL-GLYCEROPHOSPHOCHOLINE],10.6
